# According to patent EP2057188B1 (priority 2006, dated 2008):
# Where two headings read alike, the source gives them in different places. Ends that are not written are not given here.
# How the values were obtained:
# [1] = inhibition of gastric emptying, subcutaneous, cited from earlier work
# [2] = system: cardiomyocyte Gs- and Gi-coupled receptors; experiment: cAMP assay in neonatal cardiomyocytes; format: cell-based, rat
# Method: Activation of cardiomyocyte Gs- and Gi-coupled receptors was determined as a measure of cAMP production.
# Neonatal cardiomyocytes were isolated using a commercially available system. […] Sprague Dawley neonatal rats (1-2 days old) were decapitated and the beating heart dissected out into digestion buffer (Cellutron D1 buffer) to dissociate cells. […] The resuspended cells incubated in buffer (Cellutron D3 buffer) for sufficient time to allow optimal dispersion and minimize the need for pipetting to break up clumps. Cells released from the first 2 digestions were discarded since a significant portion of these is red blood cells. Resuspended cells were filtered and allowed to pre-plate for 1 hour on plastic in an incubator in NS media (Cellutron, NJ) in order to remove fibroblasts. After 1 hour of pre-plating, floating cells are removed and the flask rinsed with NS media. The floating cells and the cells in the rinse media were combined and counted. Residual red blood cells, which are smaller that the cardiac myocytes, were not counted.
# At Day 1, the NS media was replaced with fresh NS media.
# Dose response was determined.
# For Gs assays the positive control was 10uM forskolin and negative control was buffer. For Gi assays the positive control was buffer and the negative control was 10uM forskolin.
# [3] = molecular target: human GIP receptor (Homo sapiens, UniProt P48546); experiment: biochemical; settings: read-out: %Inh 10nM
# Chain of human GIP receptor (P48546 22-466 limits assumed): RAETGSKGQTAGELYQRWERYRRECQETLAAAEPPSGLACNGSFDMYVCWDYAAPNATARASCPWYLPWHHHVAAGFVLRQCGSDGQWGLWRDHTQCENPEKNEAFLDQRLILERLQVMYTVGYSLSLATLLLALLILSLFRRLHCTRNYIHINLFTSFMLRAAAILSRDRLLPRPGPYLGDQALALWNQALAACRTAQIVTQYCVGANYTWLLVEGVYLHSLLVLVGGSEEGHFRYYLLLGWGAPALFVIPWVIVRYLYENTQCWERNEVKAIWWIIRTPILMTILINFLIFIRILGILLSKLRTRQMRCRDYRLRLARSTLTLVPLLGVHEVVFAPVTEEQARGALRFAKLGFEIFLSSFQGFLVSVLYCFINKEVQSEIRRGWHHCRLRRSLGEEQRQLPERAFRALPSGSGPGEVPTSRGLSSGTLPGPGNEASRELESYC
# [4] = Circulatory system effects in conscious rats by telemetry; format: in vivo, Harlan Sprague Dawley rats; settings: 80 nmol/kg, remote intravenous dosing
# [5] = format: in vivo, NIH/Swiss mice; settings: mouse, in vivo
# Method: In Figure 3A, bars represent mean ± sd, n=6-10. […] Gavage (1.5g/kg) was given at t=0. Sample was taken at t=30 min. […] In Figure 3B, points represent mean ± sem, n=8-15.
# In Figure 13B bars represent mean +/- sd. Peptide was injected IP at t = -5 minutes into 4-hour fasted NIH/Swiss female mice. Gavage (1.5g/kg) was given at t = 0. […] In Figure 17 points represent mean +/- sem. […] Samples were taken at t=60, t=120 and t=180.
# [6] = IP at t=0; consumed at t=30, 60, 120 min
# [7] = format: in vivo, db/db mice; settings: Figure 4; GIP at a 10 fold higher dose
# Method: Peptide was injected IP at t=0 immediately following baseline sample into 2-hour fasted db/db mice.
# [8] = format: in vivo, rats; design: AUC Change in Insulin Pre IVGTT / AUC Change in Insulin Post IVGTT: unit not given beside the values
# [9] = IVGTT duration of action assay, single SC injection; format: in vivo, rat; settings: for Duration In The Rat IVGTT Assay: compared with 0601GIP3794 (794), @ -120 min
# Method: In the typical IVGTT assays the test sample was administered by IV infusion. The IV infusion of sample was initiated at t = -30min and continued through t = 90. IV glucose was given at t = 0. To determine a duration of action using the IVGTT assay, the sample was injected SC as a single injection at one time point indicated (e.g., t = -240, -120, -60 or -30) prior to administration of glucose. IV glucose was given at t = 0.
# [10] = format: in vivo, NIH/Swiss mice
# Method: Gavage (1.5g/kg) was given at t=0. Sample was taken at t=30 min.
# [11] = format: in vivo, C57BL/6 mice; settings: infused via osmotic pump for 2 weeks, high-fat diet
# [12] = cardiomyocyte Gs-coupled receptor activation, three independent experiments
# [13] = 100 pmol/kg/min infusion dose in rats
# [14] = insulin levels at 0-30 minutes as AUC, rat
compound,measurement,setting,value
HAEGTFTSDVSSYLEGQAAKEFIAWLVKGR-NH2 [GLP-1],EC(50),[1]; conscious rats ~200g,1.82 µg
same,EC(50),[1]; conscious rats,2.76 nmol/kg
same,cAMP activity in cardiomyocytes,[2]; data not shown,very low to no significant activity
CC[C@H](C)[C@H](NC(=O)[C@H](CO)NC(=O)[C@H](Cc1ccc(O)cc1)NC(=O)[C@H](CC(=O)O)NC(=O)[C@H](CO)NC(=O)[C@@H](NC(=O)[C@H](Cc1ccccc1)NC(=O)[C@@H](NC(=O)CNC(=O)[C@H](CC(=O)O)NC(=O)[C@H](C)NC(=O)[C@@H](N)Cc1ccc(O)cc1)[C@@H](C)O)[C@@H](C)CC)C(=O)N[C@@H](C)C(=O)N[C@@H](CCSC)C(=O)N[C@@H](CC(=O)O)C(=O)N[C@@H](CCCCN)C(=O)N[C@H](C(=O)N[C@@H](Cc1c[nH]cn1)C(=O)N[C@@H](CCC(N)=O)C(=O)N[C@@H](CCC(N)=O)C(=O)N[C@@H](CC(=O)O)C(=O)N[C@@H](Cc1ccccc1)C(=O)N[C@H](C(=O)N[C@@H](CC(N)=O)C(=O)N[C@@H](Cc1c[nH]c2ccccc12)C(=O)N[C@@H](CC(C)C)C(=O)N[C@@H](CC(C)C)C(=O)N[C@@H](C)C(=O)N[C@@H](CCC(N)=O)C(=O)N[C@@H](CCCCN)C(=O)N1CCC[C@H]1C(=O)N[C@@H](CCCCN)C(=O)N[C@@H](CCCCN)C(=O)N[C@H](C(=O)N[C@@H](CCCNC(=N)N)C(=O)N[C@@H](Cc1ccc(O)cc1)C(=O)N[C@@H](CO)C(N)=O)[C@@H](C)CC)C(C)C)[C@@H](C)CC [Compound 0601GIP4390],inhibition at 0.01 µM,[3],90.3%
"urocortin: known cardiac myocyte Gs-coupled receptor activator used as a positive control (DNPSLSIDLTFHLLRTLLELARTQSQRERAEQNRIIFDSV; ends and bridges not checked; UniProt P55089 83-122, looked up)",EC(50),[2]; [12],0.7 nM
YaEGTFISDYSIAMDKIHQQDFVNWLLAQKPSSGAPPPS-NH2 [Compound 0601GIP3794],dP/dt (inotropic effect),[4],prolonged inotropic effect
same,heart rate,[4],transient relative to GIP
same,mean arterial pressure,[4],decreased mean arterial pressure
same,systolic and diastolic pressures,[4]; compared to vehicle or GIP,sustained lowering of systolic and diastolic pressures
same,OGTT ED50,[5],~2 nmol/kg
same,acute food intake,[6],did not acutely inhibit food intake
same,glucose lowering in a diabetic mouse model,[7],pronounced and long-acting effect in lowering glucose
same,insulin levels prior to the glucose challenge,[8]; [13],significant rise in insulin levels
same,insulinotropic response to an intravenous glucose challenge,[8]; [13],significant enhancement of the insulinotropic response
same,Standard IVGTT assay IV infusion (100 pmol/min/kg),[8]; [14],249
same,AUC Change in Insulin Post IVGTT,"[8]; rat, in vivo",173.1+-29.4
same,AUC Change in Insulin Pre IVGTT,"[8]; rat, in vivo",28.8 +-10.7
same,EC(50),"[2]; cAMP production, experiment of Figures 18A/18B",11.7 nM
same,EC(50),[2]; [12],29.8 nM
same,Duration of action in assay SC inj T = -30 min,[9]; [14],198
same,Duration of action in assay SC inj T = -60 min,[9]; [14],159
same,Duration of action in assay SC inj T = -120 min,[9]; [14],204
same,Duration of action in assay SC inj T= -240 min,[9]; [14],79
same,Basal Glucose Lowering at 80 nmol/Kg,[10]; AUC180,-9%
same,Basal Glucose Lowering at 80 nmol/Kg,[10]; AUC240,-7 to-20%
same,glucose lowering in normal mice,"[10]; Figures 3A and 3B, NIH/Swiss mice",significantly more efficacious than full length GIP
same,glucose lowering profile,"[10]; Figures 8A and 8B, IP at t=0, 2-hour fasted NIH/Swiss mice",gradually increasing activity that peaks at t=120min
same,body weight change in diet-induced-obese mice,[11],without a concomitant reduction in body weight
CC[C@H](C)[C@H](NC(=O)[C@H](CO)NC(=O)[C@H](Cc1ccc(O)cc1)NC(=O)[C@H](CC(=O)O)NC(=O)[C@H](CO)NC(=O)[C@@H](NC(=O)[C@H](Cc1ccccc1)NC(=O)[C@@H](NC(=O)CNC(=O)[C@H](CCC(=O)O)NC(=O)[C@@H](C)NC(=O)[C@@H](N)Cc1ccc(O)cc1)[C@@H](C)O)[C@@H](C)CC)C(=O)N[C@@H](C)C(=O)N[C@@H](CCSC)C(=O)N[C@@H](CC(=O)O)C(=O)N[C@@H](CCCCN)C(=O)N[C@H](C(=O)N[C@@H](Cc1c[nH]cn1)C(=O)N[C@@H](CCC(N)=O)C(=O)N[C@@H](CCC(N)=O)C(=O)N[C@@H](CC(=O)O)C(=O)N[C@@H](Cc1ccccc1)C(=O)N[C@H](C(=O)N[C@@H](CC(N)=O)C(=O)N[C@@H](Cc1c[nH]c2ccccc12)C(=O)N[C@@H](CC(C)C)C(=O)N[C@@H](CC(C)C)C(=O)N[C@@H](C)C(=O)N[C@@H](CCC(N)=O)C(=O)N[C@@H](CCCCN)C(=O)N1CCC[C@H]1C(=O)N[C@@H](CCCCN)C(=O)N[C@@H](CCCCN)C(=O)N[C@@H](CC(C)C)C(=O)N[C@@H](CCCCN)C(=O)N1CCC[C@H]1C(=O)N[C@@H](CO)C(N)=O)C(C)C)[C@@H](C)CC [0601 GIP48 22],Duration In The Rat IVGTT Assay,[9],<794@-120 min
same,Basal Glucose Lowering at 80 nmol/Kg,[10]; AUC240,"-11%, AUC240"
CC[C@H](C)[C@H](NC(=O)[C@H](CO)NC(=O)[C@H](Cc1ccc(O)cc1)NC(=O)[C@H](CC(=O)O)NC(=O)[C@H](CO)NC(=O)[C@@H](NC(=O)[C@H](Cc1ccccc1)NC(=O)[C@@H](NC(=O)CNC(=O)[C@H](CCC(=O)O)NC(=O)[C@@H](C)NC(=O)[C@@H](N)Cc1ccc(O)cc1)[C@@H](C)O)[C@@H](C)CC)C(=O)N[C@@H](C)C(=O)N[C@@H](CCSC)C(=O)N[C@@H](CC(=O)O)C(=O)N[C@@H](CCCCN)C(=O)N[C@H](C(=O)N[C@@H](Cc1c[nH]cn1)C(=O)N[C@@H](CCC(N)=O)C(=O)N[C@@H](CCC(N)=O)C(=O)N[C@@H](CC(=O)O)C(=O)N[C@@H](Cc1ccccc1)C(=O)N[C@H](C(=O)N[C@@H](CC(N)=O)C(=O)N[C@@H](Cc1c[nH]c2ccccc12)C(=O)N[C@@H](CC(C)C)C(=O)N[C@@H](CC(C)C)C(=O)N[C@@H](C)C(=O)N[C@@H](CCC(N)=O)C(=O)N[C@@H](CCCCN)C(=O)N1CCC[C@H]1C(=O)N[C@@H](C)C(=O)N[C@@H](CCCCN)C(=O)N[C@H](C(=O)N[C@@H](CCCNC(=N)N)C(=O)N[C@@H](Cc1ccc(O)cc1)C(=O)N[C@@H](CO)C(N)=O)[C@@H](C)CC)C(C)C)[C@@H](C)CC [0601 GIP48 15],Duration In The Rat IVGTT Assay,[9],< 794@ -120 min
same,Basal Glucose Lowering at 80 nmol/Kg,[10]; AUC240,"-14%, AUC240"
CC[C@H](C)[C@H](NC(=O)[C@H](CO)NC(=O)[C@H](Cc1ccc(O)cc1)NC(=O)[C@H](CC(=O)O)NC(=O)[C@H](CO)NC(=O)[C@@H](NC(=O)[C@H](Cc1ccccc1)NC(=O)[C@@H](NC(=O)CNC(=O)[C@H](CCC(=O)O)NC(=O)[C@@H](C)NC(=O)[C@@H](N)Cc1ccc(O)cc1)[C@@H](C)O)[C@@H](C)CC)C(=O)N[C@@H](C)C(=O)N[C@@H](CCSC)C(=O)N[C@@H](CC(=O)O)C(=O)N[C@@H](CCCCN)C(=O)N[C@H](C(=O)N[C@@H](Cc1c[nH]cn1)C(=O)N[C@@H](CCC(N)=O)C(=O)N[C@@H](CCC(N)=O)C(=O)N[C@@H](CC(=O)O)C(=O)N[C@@H](Cc1ccccc1)C(=O)N[C@H](C(=O)N[C@@H](CC(N)=O)C(=O)N[C@@H](Cc1c[nH]c2ccccc12)C(=O)N[C@@H](CC(C)C)C(=O)N[C@@H](CC(C)C)C(=O)N[C@@H](C)C(=O)N[C@@H](CCC(N)=O)C(=O)N[C@@H](CCCCN)C(=O)N1CCC[C@H]1C(=O)N[C@@H](CCC(N)=O)C(=O)N[C@@H](CCCCN)C(=O)N[C@H](C(=O)N[C@@H](CCCNC(=N)N)C(=O)N[C@@H](Cc1ccc(O)cc1)C(=O)N[C@@H](CO)C(N)=O)[C@@H](C)CC)C(C)C)[C@@H](C)CC [0601 GIP48 53],Duration In The Rat IVGTT Assay,[9],< 794@ -120 min
same,Basal Glucose Lowering at 80 nmol/Kg,[10]; AUC240,"-20%, AUC240"
